Converted amounts (≈) assume the structure as drawn. Square brackets hold non-standard residues; d marks the D form. Peptide text beside a SMILES is read from it. Ac6c = NC1(C(=O)O)CCCCC1
Legend:
E. coli D31 = conditions: full strength Muller-Hinton broth, 16 hours, 37° C.
Description: (§1) To investigate the activity of the A3-APO metabolites, Chex1-Arg20 single chain unit and an Arg7-Arg20 common cleavage fragment were synthesized and studied for their ability to kill Enterobacteriaceae strains in undiluted Muller-Hinton broth, a true measure of potential clinical viability (Otvos et al., 2005. J. Med. Chem. 48: 5349-5359). The peptides of the invention were made on a CEM Liberty automated synthesizer with standard Fmoc-chemistry. The peptides were detached from the resin with the carboxyl terminus of the C-terminal Arg residue being in the form of an amino amide, —C(O)—NH2 (“Chex1-Arg20-NH2” and “Arg7-Arg20-NH2”), while still in the microwave chamber, and were purified by RP-HPLC. […] The biological studies carried out on chemically synthesized peptides in this example and succeeding examples were carried out on the C-terminal modified versions of the peptides wherein the C-terminal carboxylic acid function was in the form of an amide, —C(O)—NH2. Antibacterial growth inhibition assays were performed using sterile 96-well polypropylene plates (Nunc F96 microtiter plates) in a final volume of 100 μL as described previously (Cudic et al., 2002. Peptides 23: 271-283). The cell concentrations were estimated by measuring the ultraviolet absorbance at 600 nm and applying the formula cfu/mL=A600(3.8×10^8), where cfu is the number of colony-forming units. Briefly, 50 μL of a suspension of midlogarithmic phase bacterial cultures diluted to 5×10^5 cfu/mL in Muller-Hinton broth (MHB) was added to 50 μL of serially diluted peptides also dissolved in MHB. The final peptide concentration was 128 μg/mL. Cultures were then incubated at 37° C., 5% CO2 for 16-20 h without shaking, and growth inhibition was measured by recording the absorbance at 600 nm using a microplate reader. […] The minimal inhibitory concentration indicates the lowest peptide dose where no visible bacterial growth is detected after 16 hours incubation in full strength Muller-Hinton broth at 37° C. The peptide Chex-pyrr-Dap dimer was also included in the study. […] (Cudic et al., 2002. Peptides 23: 271-283).

[1] = system: Klebsiella pneumoniae isolates
Description: as §1

S. typhimurium G10215 = conditions: G10215, 16 h
Description: as §1

E. coli HK101 = conditions: quarter strength Mueller-Hinton broth, overnight, 37° C.
Description: To investigate the activity of the A3-APO metabolites, Chex1-Arg20 single chain unit and an Arg7-Arg20 common cleavage fragment were synthesized and […], a true measure of potential clinical viability (Otvos et al., 2005. J. Med. Chem. 48: 5349-5359). The peptides of the invention were made on a CEM Liberty automated synthesizer with standard Fmoc-chemistry. The peptides were detached from the resin with the carboxyl terminus of the C-terminal Arg residue being in the form of an amino amide, —C(O)—NH2 (“Chex1-Arg20-NH2” and “Arg7-Arg20-NH2”), while still in the microwave chamber, and were purified by RP-HPLC. […] The biological studies carried out on chemically synthesized peptides in this example and succeeding examples were carried out on the C-terminal modified versions of the peptides wherein the C-terminal carboxylic acid function was in the form of an amide, —C(O)—NH2. […] The cell concentrations were estimated by measuring the ultraviolet absorbance at 600 nm and applying the formula cfu/mL=A600(3.8×10^8), where cfu is the number of colony-forming units. […] Cultures were then incubated at 37° C., 5% CO2 for 16-20 h without shaking, and growth inhibition was measured by recording the absorbance at 600 nm using a microplate reader. […]
Following the protocol of Example 2, minimal inhibitory concentrations of the Chex1-Arg20 peptide against selected bacteria was determined. […]

[2] = Gross necropsy of surviving mice three days post-infection; type: in vivo, CD-1 mice; conditions: 10 or 20 mg/kg ip
Protocol: As peptide drugs, such as antimicrobial peptides, are predominantly cleared through the kidneys (Klootwijk et al., 1997. J. Clin. Endocrinol. Metab. 82: 3068-3073) and the kidney functions of mice are 20-fold faster than those of humans, CD-1 female mice of 15-20 g were pretreated with 18 mg/kg cisplatin for 3 days to impair kidney clearance similar to the levels observed in humans (Mathe et al., 2006. Lab. Anim. 40: 296-300) before they were challenged intraperitoneally (ip) with 10^8 CFU per g mouse of an extended-spectrum β-lactamase producing E. coli strain (designation 5770). Four, 8 and 12 hours after challenge 10 or 20 mg/kg peptide Chex1-Arg20 or 40 mg/kg imipenem (as a positive control) were administered ip to 10 mice in each group. Imipenem is a broad spectrum β-lactam antibiotic. Prior to drug administration at all three timepoints, blood was taken from the tail vein of 3-5 mice for determining blood bacterial counts. […] Antimicrobials were administered ip 4 hours after challenge 3 times in 4 hour intervals. Blood was taken immediately before antimicrobial treatments. Numbers in parentheses indicate the number of mice with <10^3 CFU/mL. Bacterial counts were determined 10 times from different dilution of blood from 5 mice in each group in each timepoints.
The skin was smooth, and healthy liver, lungs, spleen and kidneys were registered.

Escherichia coli 5770 = assay: Mouse survival after last dose, systemic infection model without cisplatin pretreatment; type: in vivo
Protocol: The survival rate and the dynamics of survival of mice after the last dose of an antibacterial peptide treatment (12 hours post-infection) were measured in a mouse model of Escherichia coli 5770 systemic infection. In this particular study, the animals were not pretreated with cisplatin. Ten animals were used in each group. […] In the control (infected, non-treated) and the imipenem treated rows, the first numbers reflect the number of surviving animals on the day of assay measuring the efficacy of the Chex1-Arg20 and the second numbers are the surviving control animals on the day of the A3-APO efficacy assay.

CC(C)C[C@H](NC(=O)[C@H](Cc1ccc(O)cc1)NC(=O)[C@@H]1CCCN1C(=O)[C@H](CCCNC(=N)N)NC(=O)[C@@H]1CCCN1C(=O)[C@H](CCCCN)NC(=O)[C@H](CC(=O)O)NC(=O)[C@@H]1CCCN1C(=O)[C@H](CCCNC(=N)N)NC(=O)C1(N)CCCCC1)C(=O)N1CCC[C@H]1C(=O)N[C@@H](CCCNC(=N)N)C(=O)N1CCC[C@H]1C(=O)N[C@@H](CCCNC(=N)N)C(=O)N1CCC[C@H]1C(=O)N1CCC[C@H]1C(=O)N[C@@H](CCCNC(=N)N)C(=O)N1CCC[C@H]1C(=O)N[C@H](C(=O)N[C@@H](CCCNC(=N)N)C(=O)O)C(C)C [Chex1-Arg20, Chex-Arg-Pro-Asp-Lys-Pro-Arg-Pro-Tyr-Leu-Pro-Arg-Pro-Arg--Pro-Pro-Arg-Pro-Val-Arg] (H-[Ac6c]RPDKPRPYLPRPRPPRPVR-OH; N-terminus and C-terminus assumed)
MIC against E. coli D31 (E. coli D31): 8 µg/mL (≈ 3.23 µM) | minimal bactericidal concentrations (MBC) [1]: 8 µg/mL (≈ 3.23 µM) | MIC against S. typhimurium G10215 (S. typhimurium G10215): 4 µg/mL (≈ 1.62 µM) | MIC, E. coli HK101 (E. coli HK101): 0.5 µg/mL (≈ 0.202 µM) | internal bleeding (hemolysis) [2]: no signs of internal bleeding | signs of toxicity at gross necropsy [2]: no signs of toxicity | number of surviving mice (10 animals each) (Escherichia coli 5770; 2.5 mg/kg, 0 h after last dose): 10 | number of surviving mice (10 animals each) (Escherichia coli 5770; 2.5 mg/kg, 3 h after last dose): 7/7 | number of surviving mice (10 animals each) (Escherichia coli 5770; 2.5 mg/kg, 6 h after last dose): 7 | number of surviving mice (10 animals each) (Escherichia coli 5770; 2.5 mg/kg, 9 h after last dose): 5 | number of surviving mice (10 animals each) (Escherichia coli 5770; 2.5 mg/kg, 12 h after last dose): 4 | number of surviving mice (10 animals each) (Escherichia coli 5770; 5 mg/kg, 0 h after last dose): 9 | number of surviving mice (10 animals each) (Escherichia coli 5770; 5 mg/kg, 3 h after last dose): 9 | number of surviving mice (10 animals each) (Escherichia coli 5770; 5 mg/kg, 6 h after last dose): 8 | number of surviving mice (10 animals each) (Escherichia coli 5770; 5 mg/kg, 9 h after last dose): 6 | number of surviving mice (10 animals each) (Escherichia coli 5770; 5 mg/kg, 12 h after last dose): 5 | number of surviving mice (10 animals each) (Escherichia coli 5770; 10 mg/kg, 0 h after last dose): 10 | number of surviving mice (10 animals each) (Escherichia coli 5770; 10 mg/kg, 3 h after last dose): 10 | number of surviving mice (10 animals each) (Escherichia coli 5770; 10 mg/kg, 6 h after last dose): 10 | number of surviving mice (10 animals each) (Escherichia coli 5770; 10 mg/kg, 9 h after last dose): 9 | number of surviving mice (10 animals each) (Escherichia coli 5770; 10 mg/kg, 12 h after last dose): 5

From patent US8492515B2 (priority 2008, dated 2013)
